These results are taken from ChEMBL document CHEMBL3045550, “Design, synthesis and biological activities of new strobilurin derivatives containing substituted pyrazoles” (2010).

Common to all, as to type: functional
One assay has as its system Botrytis cinerea. Briefly: Antifungal activity against Botryotinia fuckeliana infected cucumber leaves assessed as disease control at 400 mg/l after 4 days relative to control.
Assay [1] deals with Blumeria graminis f. sp. tritici. Briefly: Antifungal activity against Blumeria graminis f. sp. tritici infected seven-day-old wheat seedlings assessed as disease control at 1.56 mg/l after 7 days relative to control.
In another assay the test system is Pyricularia oryzae. Briefly: Antifungal activity against Magnaporthe oryzae infected 12 day old rice plant assessed as disease control at 400 mg/l after 6 days relative to control.
The test system of assay [2] is Pseudoperonospora cubensis. In words: Antifungal activity against Pseudoperonospora cubensis infected cucumber leaves assessed as disease control at 6.25 mg/l after 5 days relative to control.
The test system of assay [3] is Tetranychus cinnabarinus. In words: Acaricidal activity against Tetranychus cinnabarinus (carmine spider mite) in kidney bean plants assessed as mortality at 600 mg/l after 48 hr relative to control.
For assay [4], the system named is Blumeria graminis f. sp. tritici. In words: Antifungal activity against Blumeria graminis f. sp. tritici infected seven-day-old wheat seedlings assessed as disease control at 400 mg/l after 7 days relative to control.
Assay [5] relates to Pseudoperonospora cubensis. In words: Antifungal activity against Pseudoperonospora cubensis infected cucumber leaves assessed as disease control at 25 mg/l after 5 days relative to control.
Assay [6] has as its system Blumeria graminis f. sp. tritici. Briefly: Antifungal activity against Blumeria graminis f. sp. tritici infected seven-day-old wheat seedlings assessed as disease control at 12.5 mg/l after 7 days relative to control.
Assay [7] relates to Pseudoperonospora cubensis. Briefly: Antifungal activity against Pseudoperonospora cubensis infected cucumber leaves assessed as disease control at 400 mg/l after 5 days relative to control.
For assay [8], the system named is Pseudoperonospora cubensis. In words: Antifungal activity against Pseudoperonospora cubensis infected cucumber leaves assessed as disease control at 3.12 mg/l after 5 days relative to control.
The subject of assay [9] is Tetranychus cinnabarinus. Briefly: Acaricidal activity against Tetranychus cinnabarinus (carmine spider mite) in kidney bean plants assessed as mortality at 38 mg/l after 48 hr relative to control.
In assay [10] the test system is Tetranychus cinnabarinus. In words: Acaricidal activity against Tetranychus cinnabarinus (carmine spider mite) in kidney bean plants assessed as mortality at 150 mg/l after 48 hr relative to control.

Take `CO/C=C(/C(=O)OC)c1ccccc1COc1cc(-c2ccccc2OC)nn1C`: the Activity with Botrytis cinerea stood at 50%; in assay [1], 35%; in the assay with Pyricularia oryzae it was 100%; in assay [2], 0%; with Tetranychus cinnabarinus [3], 0%; in assay [4], 100%. The Activity came to 50% in [5], 100% in assay [6], 100% in [7] and 0% in assay [8].
`CO/C=C(/C(=O)OC)c1ccccc1COc1cc(-c2ccc(OCC(F)(F)F)cc2)nn1C`: the Activity in the assay with Botrytis cinerea is given as 0%; with Pyricularia oryzae, 0%; in [2] it was 0%; in the assay on Tetranychus cinnabarinus [3] it was 0%; in assay [4], 60%; in [5], 90%. For the same compound, the Activity in assay [7] was 100%; in assay [8], 0%.
`CO/C=C(/C(=O)OC)c1ccccc1COc1cc(-c2ccc([N+](=O)[O-])cc2)nn1C`: the Activity with Botrytis cinerea stood at 0%; in [1], 95%; in the assay on Pyricularia oryzae, 99%; in [2], 70%; in the assay on Tetranychus cinnabarinus [3], 0%; in assay [4] it was 100%. In addition, the Activity was determined as 100% in assay [5], 100% in assay [6], 100% in assay [7] and 50% in assay [8].
Take `CO/C=C(/C(=O)OC)c1ccccc1COc1cc(-c2ccc(-c3ccc(Cl)cc3)cc2)nn1C`: the Activity stood at 0% with Botrytis cinerea; 0% in assay [1]; 0% in the assay with Pyricularia oryzae; 0% in [2]; 0% in the assay with Tetranychus cinnabarinus [3]; 100% in [4]. Besides, the Activity in assay [5] came to 100%; in assay [6] it was 95%; in assay [7] it was 100%; in assay [8] it was 0%.
Turning to `CO/C=C(/C(=O)OC)c1ccccc1COc1cc(-c2ccc(Oc3ccccc3)cc2)nn1C`, the Activity is listed as 0% in the assay with Botrytis cinerea; 0% with Pyricularia oryzae; 0% in assay [2]; 0% with Tetranychus cinnabarinus [3]; 0% in assay [4]; 100% in [5]. The values for the Activity in assay [7] and in assay [8] were 100% and 0%, respectively.
In the case of `CO/C=C(/C(=O)OC)c1ccccc1COc1c(C)c(-c2ccccc2)nn1C`, the Activity in the assay with Botrytis cinerea is given as 0%; in assay [1], 55%; in the assay with Pyricularia oryzae it was 0%; in assay [2], 60%; in the assay on Tetranychus cinnabarinus [9] it was 0%; in the assay on Tetranychus cinnabarinus [3], 100%. For the same compound, the Activity in assay [4] was 100%; in [5], 100%; with Tetranychus cinnabarinus [10], 0%; in assay [6] it was 100%; in [7] it was 100%; in assay [8], 40%.
In the case of `CO/C=C(/C(=O)OC)c1ccccc1Oc1cc(Oc2ccccc2C#N)ncn1` [AZOXYSTROBIN], the Activity in the assay with Botrytis cinerea is reported as 100%; in assay [1] it was 60%; in the assay on Pyricularia oryzae, 100%; in assay [2], 95%; in assay [4] it was 100%; in assay [5], 100%. In addition, the Activity in assay [6], in assay [7] and in assay [8] was 100% in each case.
With `CO/N=C(/C(=O)OC)c1ccccc1COc1ccccc1C` [KRESOXIM-METHYL], the Activity in the assay on Botrytis cinerea is 100%; in assay [1], 100%; in the assay on Pyricularia oryzae, 100%; in [2] it was 0%; in assay [4], 100%; in assay [5], 35%. For the same compound, the Activity in assay [6] is 100%; in assay [8] it was 0%.
As to `CO/C=C(/C(=O)OC)c1ccccc1COc1c(C)c(-c2ccc(OCC(F)(F)F)cc2)nn1C` [METHYL 2-(2-((1,4-DIMETHYL-3-(4-(2,2,2-TRIFLUOROETHOXY)PHENYL)-1H-PYRAZOL-5-YLOXY)METHYL)PHENYL)-3-METHOXYACRYLATE], the Activity is reported as 100% with Botrytis cinerea; 65% in assay [1]; 100% in the assay on Pyricularia oryzae; 0% in [2]; 60% in the assay on Tetranychus cinnabarinus [3]; 100% in assay [4]. Besides, the Activity worked out at 40% in [5], 100% in assay [6], 100% in assay [7] and 0% in assay [8].
As for `CO/C=C(/C(=O)OC)c1ccccc1COc1cc(-c2ccc(Cl)cc2Cl)nn1C` [METHYL 2-(2-((3-(2,4-DICHLOROPHENYL)-1-METHYL-1H-PYRAZOL-5-YLOXY)METHYL)PHENYL)-3-METHOXYACRYLATE], the Activity in the assay with Botrytis cinerea amounted to 0%; in assay [1], 0%; with Pyricularia oryzae, 0%; in assay [2], 45%; with Tetranychus cinnabarinus [3], 0%; in [4] it was 100%. Further, the Activity is 100% in assay [5], 100% in assay [6], 100% in assay [7] and 20% in [8].
For the compound `CO/C=C(/C(=O)OC)c1ccccc1COc1c(C)c(-c2ccc(Cl)cc2)nn1C` [METHYL 2-(2-((3-(4-CHLOROPHENYL)-1,4-DIMETHYL-1H-PYRAZOL-5-YLOXY)METHYL)PHENYL)-3-METHOXYACRYLATE], the Activity worked out at 0% with Botrytis cinerea; 100% in [1]; 0% in the assay with Pyricularia oryzae; 0% in assay [2]; 60% with Tetranychus cinnabarinus [3]; 100% in [4]. Also, the Activity in assay [5] is 0%; in [6], 100%; in assay [7], 95%; in [8], 0%.
Consider `CO/C=C(/C(=O)OC)c1ccccc1COc1cc(-c2ccc(F)cc2)nn1C` [METHYL 2-(2-((3-(4-FLUOROPHENYL)-1-METHYL-1H-PYRAZOL-5-YLOXY)METHYL)PHENYL)-3-METHOXYACRYLATE], for which the Activity with Botrytis cinerea is 100%; in the assay on Pyricularia oryzae, 50%; in [2], 100%; in the assay with Tetranychus cinnabarinus [3], 0%; in [4], 30%; in [5] it was 100%. For the same compound, the Activity in assay [7] came to 100%; in [8] it was 75%.
For `CO/C=C(/C(=O)OC)c1ccccc1COc1cc(-c2ccc(C(C)(C)C)cc2)nn1C` [METHYL 2-(2-((3-(4-TERT-BUTYLPHENYL)-1-METHYL-1H-PYRAZOL-5-YLOXY)METHYL)PHENYL)-3-METHOXYACRYLATE], the Activity was found to be 50% with Botrytis cinerea; 100% in the assay with Pyricularia oryzae; 0% in the assay on Tetranychus cinnabarinus [3]; 70% in assay [4]; 15% in [5]; 100% in assay [7].
`CO/C=C(/C(=O)OC)c1ccccc1COc1cc(-c2ccc(SC)cc2)nn1C` [METHYL 3-METHOXY-2-(2-((1-METHYL-3-(4-(METHYLTHIO)PHENYL)-1H-PYRAZOL-5-YLOXY)METHYL)PHENYL)ACRYLATE]: the Activity came to 0% in the assay on Botrytis cinerea; 90% in the assay with Pyricularia oryzae; 35% in [2]; 0% in the assay with Tetranychus cinnabarinus [3]; 0% in assay [4]; 100% in [5]. Moreover, the Activity in assay [7] stood at 100%; in assay [8] it was 0%.
As to `CO/C=C(/C(=O)OC)c1ccccc1COc1cc(-c2ccc(C)cc2)nn1C` [METHYL 3-METHOXY-2-(2-((1-METHYL-3-P-TOLYL-1H-PYRAZOL-5-YLOXY)METHYL)PHENYL)ACRYLATE], the Activity in the assay with Botrytis cinerea turned out to be 0%; in [1] it was 0%; with Pyricularia oryzae it was 0%; in assay [2], 0%; with Tetranychus cinnabarinus [3] it was 0%; in assay [4], 100%. The Activity in assay [5] was determined as 0%; in [6], 35%; in assay [7], 100%; in assay [8] it was 0%.
On to `CO/C=C(/C(=O)OC)c1ccccc1COc1cc(-c2ccccc2)nn1C` [METHYL 3-METHOXY-2-(2-((1-METHYL-3-PHENYL-1H-PYRAZOL-5-YLOXY)METHYL)PHENYL)ACRYLATE], for which the Activity is on record as 0% with Botrytis cinerea; 0% in assay [1]; 0% in the assay on Pyricularia oryzae; 0% in [2]; 0% in the assay on Tetranychus cinnabarinus [3]; 100% in assay [4]. Besides, the Activity in assay [5] is reported as 0%; in assay [6] it was 0%; in assay [7], 100%; in assay [8], 0%.
On to `CO/C=C(/C(=O)OC)c1ccccc1COc1cc(-c2ccc(OC)cc2)nn1C` [METHYL 3-METHOXY-2-(2-((3-(4-METHOXYPHENYL)-1-METHYL-1H-PYRAZOL-5-YLOXY)METHYL)PHENYL)ACRYLATE], for which the Activity came to 50% with Botrytis cinerea; 0% in assay [1]; 100% in the assay with Pyricularia oryzae; 15% in assay [2]; 0% with Tetranychus cinnabarinus [3]; 100% in assay [4]. Moreover, the Activity in [5] is given as 90%; in assay [6] it was 65%; in assay [7], 95%; in assay [8], 0%.
